What is called IC50 is the concentration that gives 50% inhibition.

Chain of HCV NS3-4A serine protease (full-length NS3-4A protein) (P26664 1027-1657): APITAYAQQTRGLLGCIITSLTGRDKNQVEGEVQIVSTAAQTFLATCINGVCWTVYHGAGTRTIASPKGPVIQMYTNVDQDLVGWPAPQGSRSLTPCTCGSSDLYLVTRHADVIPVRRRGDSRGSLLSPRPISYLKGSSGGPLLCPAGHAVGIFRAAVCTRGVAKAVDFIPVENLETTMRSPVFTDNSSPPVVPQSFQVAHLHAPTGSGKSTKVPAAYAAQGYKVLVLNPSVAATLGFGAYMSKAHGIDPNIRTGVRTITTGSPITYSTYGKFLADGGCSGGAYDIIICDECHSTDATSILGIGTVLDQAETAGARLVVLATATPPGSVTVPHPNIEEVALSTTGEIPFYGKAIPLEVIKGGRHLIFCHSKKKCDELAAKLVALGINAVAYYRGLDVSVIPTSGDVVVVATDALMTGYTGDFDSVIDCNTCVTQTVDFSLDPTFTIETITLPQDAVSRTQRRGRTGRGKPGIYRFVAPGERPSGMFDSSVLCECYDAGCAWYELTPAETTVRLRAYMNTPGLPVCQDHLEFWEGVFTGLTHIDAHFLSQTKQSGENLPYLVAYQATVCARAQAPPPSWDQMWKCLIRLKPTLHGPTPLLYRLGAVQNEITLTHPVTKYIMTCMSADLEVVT
Chain of HCV NS3-4A serine protease (full-length NS3-4A protein) (P26664 1658-1711 partner): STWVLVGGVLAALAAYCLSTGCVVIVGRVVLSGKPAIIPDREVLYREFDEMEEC

For this assay, the target named is HCV NS3-4A serine protease (full-length NS3-4A protein) (Hepatitis C virus genotype 1a (isolate 1) (HCV), UniProt P26664). Kind of assay: HCV NS3-4A protease assay. The note with it: strain HCV-1, fluorogenic peptide substrate, read-out: Protease assay Ex. 12 IC50. It is filed as biochemical, HCV genotype 1a. The protocol:
The inhibitory activity of certain compounds of Table A against HCV NS3-4A serine protease is determined in a homogenous assay using the full-length NS3-4A protein (genotype 1a, strain HCV-1) and a commercially available internally-quenched fluorogenic peptide substrate as described by Taliani, M., et al. 1996 Anal. Biochem. 240:60-67, which is incorporated by reference in its entirety.
Turning to `C=C[C@@H]1C[C@]1(NC(=O)[C@@H]1C[C@@]2(CN1C(=O)[C@@H](NC(=O)[C@@H](NC(=O)c1cc(C)nn1C(C)(C)C)C1CCCCC1)C(C)(C)C)C(C)(C)C21CCC1)C(=O)NS(=O)(=O)N1CCCC1` [Compound 183, (5R,8S)-7-[(2S)-2-{[{[(1-tert-butyl-3-methyl-1H-pyrazol-5-yl)carbonyl]amino}(cyclohexyl)acetyl]amino}-3,3-dimethylbutanoyl]-10,10-dimethyl-N-{(1R,2S)-1-[(pyrrolidin-1-ylsulfonyl)carbamoyl]-2-vinylcyclopropyl}-7-azadispiro[3.0.4.1]decane-8-carboxamide], the IC50 is 95 nM.
Next, `C=C[C@@H]1C[C@]1(NC(=O)[C@@H]1C[C@@]2(CN1C(=O)[C@@H](NC(=O)[C@@H](NC(=O)c1cnn(-c3ccccc3)c1)C1CCCCC1)C(C)(C)C)C(C)(C)C21CCC1)C(=O)NS(=O)(=O)N1CCCC1` [Compound 184, (5R,8S)-7-{(2S)-2-[(cyclohexyl{[(1-phenyl-1H-pyrazol-4-yl)carbonyl]amino}acetyl)amino]-3,3-dimethylbutanoyl}-10,10-dimethyl-N-{(1R,2S)-1-[(pyrrolidin-1-ylsulfonyl)carbamoyl]-2-vinylcyclopropyl}-7-azadispiro[3.0.4.1]decane-8-carboxamide]: 35 nM; `C=C[C@@H]1C[C@]1(NC(=O)[C@@H]1C[C@@]2(CN1C(=O)[C@@H](NC(=O)[C@@H](NC(=O)c1cc(CC)nn1C)C1CCCCC1)C(C)(C)C)C(C)(C)C21CCC1)C(=O)NS(=O)(=O)N1CCCC1` [Compound 185, (5R,8S)-7-{(2S)-2-[(cyclohexyl{[(3-ethyl-1-methyl-1H-pyrazol-5-yl)carbonyl]amino}acetyl)amino]-3,3-dimethylbutanoyl}-10,10-dimethyl-N-{(1R,2S)-1-[(pyrrolidin-1-ylsulfonyl)carbamoyl]-2-vinylcyclopropyl}-7-azadispiro[3.0.4.1]decane-8-carboxamide]: 40 nM.
Next, `C=C[C@@H]1C[C@]1(NC(=O)[C@@H]1C[C@@]2(CN1C(=O)[C@@H](NC(=O)[C@@H](NC(=O)Cn1nc(C)cc1C)C1CCCCC1)C(C)(C)C)C(C)(C)C21CCC1)C(=O)NS(=O)(=O)N1CCCC1` [Compound 186, (5R,8S)-7-{(2S)-2-[(cyclohexyl{[(3,5-dimethyl-1H-pyrazol-1-yl)acetyl]amino}acetyl)amino]-3,3-dimethylbutanoyl}-10,10-dimethyl-N-{(1R,2S)-1-[(pyrrolidin-1-ylsulfonyl)carbamoyl]-2-vinylcyclopropyl}-7-azadispiro[3.0.4.1]decane-8-carboxamide]: 65 nM.
`C=C[C@@H]1C[C@]1(NC(=O)[C@@H]1C[C@@]2(CN1C(=O)[C@@H](NC(=O)[C@@H](NC(=O)[C@@H]1CCCN1C(C)=O)C1CCCCC1)C(C)(C)C)C(C)(C)C21CCC1)C(=O)NS(=O)(=O)N1CCCC1` [Compound 187, (5R,8S)-7-[(2S)-2-{[({[(2S)-1-acetylpyrrolidin-2-yl]carbonyl}amino)(cyclohexyl)acetyl]amino}-3,3-dimethylbutanoyl]-10,10-dimethyl-N-{(1R,2S)-1-[(pyrrolidin-1-ylsulfonyl)carbamoyl]-2-vinylcyclopropyl}-7-azadispiro[3.0.4.1]decane-8-carboxamide]: the IC50 was determined as 25 nM.
The same measure for `C=C[C@@H]1C[C@]1(NC(=O)[C@@H]1C[C@@]2(CN1C(=O)[C@@H](NC(=O)[C@@H](NC(=O)c1cc3ccccc3[nH]1)C1CCCCC1)C(C)(C)C)C(C)(C)C21CCC1)C(=O)NS(=O)(=O)N1CCCC1` [Compound 188, (5R,8S)-7-[(2S)-2-({cyclohexyl[(1H-indol-2-ylcarbonyl)amino]acetyl}amino)-3,3-dimethylbutanoyl]-10,10-dimethyl-N-{(1R,2S)-1-[(pyrrolidin-1-ylsulfonyl)carbamoyl]-2-vinylcyclopropyl}-7-azadispiro[3.0.4.1]decane-8-carboxamide]: 20 nM; for `C=C[C@@H]1C[C@]1(NC(=O)[C@@H]1C[C@@]2(CN1C(=O)[C@@H](NC(=O)[C@@H](NC(=O)c1c[nH]c3ccccc13)C1CCCCC1)C(C)(C)C)C(C)(C)C21CCC1)C(=O)NS(=O)(=O)N1CCCC1` [Compound 189, (5R,8S)-7-[(2S)-2-({cyclohexyl[(1H-indol-3-ylcarbonyl)amino]acetyl}amino)-3,3-dimethylbutanoyl]-10,10-dimethyl-N-{(1R,2S)-1-[(pyrrolidin-1-ylsulfonyl)carbamoyl]-2-vinylcyclopropyl}-7-azadispiro[3.0.4.1]decane-8-carboxamide]: 25 nM; for `C=C[C@@H]1C[C@]1(NC(=O)[C@@H]1C[C@@]2(CN1C(=O)[C@@H](NC(=O)[C@@H](NC(=O)c1ccc3[nH]ccc3c1)C1CCCCC1)C(C)(C)C)C(C)(C)C21CCC1)C(=O)NS(=O)(=O)N1CCCC1` [Compound 190, (5R,8S)-7-[(2S)-2-({cyclohexyl[(1H-indol-5-ylcarbonyl)amino]acetyl}amino)-3,3-dimethylbutanoyl]-10,10-dimethyl-N-{(1R,2S)-1-[(pyrrolidin-1-ylsulfonyl)carbamoyl]-2-vinylcyclopropyl}-7-azadispiro[3.0.4.1]decane-8-carboxamide]: 20 nM.
Next, `C=C[C@@H]1C[C@]1(NC(=O)[C@@H]1C[C@@]2(CN1C(=O)[C@@H](NC(=O)[C@@H](NC(=O)c1cc3ccccc3o1)C1CCCCC1)C(C)(C)C)C(C)(C)C21CCC1)C(=O)NS(=O)(=O)N1CCCC1` [Compound 191, (5R,8S)-7-[(2S)-2-({[(1-benzofuran-2-ylcarbonyl)amino](cyclohexyl)acetyl}amino)-3,3-dimethylbutanoyl]-10,10-dimethyl-N-{(1R,2S)-1-[(pyrrolidin-1-ylsulfonyl)carbamoyl]-2-vinylcyclopropyl}-7-azadispiro[3.0.4.1]decane-8-carboxamide]: 55 nM.
The same measure for `C=C[C@@H]1C[C@]1(NC(=O)[C@@H]1C[C@@]2(CN1C(=O)[C@@H](NC(=O)[C@@H](NC(=O)c1ccc3occc3c1)C1CCCCC1)C(C)(C)C)C(C)(C)C21CCC1)C(=O)NS(=O)(=O)N1CCCC1` [Compound 192, (5R,8S)-7-[(2S)-2-({[(1-benzofuran-5-ylcarbonyl)amino](cyclohexyl)acetyl}amino)-3,3-dimethylbutanoyl]-10,10-dimethyl-N-{(1R,2S)-1-[(pyrrolidin-1-ylsulfonyl)carbamoyl]-2-vinylcyclopropyl}-7-azadispiro[3.0.4.1]decane-8-carboxamide]: 25 nM.
In the case of `C=C[C@@H]1C[C@]1(NC(=O)[C@@H]1C[C@@]2(CN1C(=O)[C@@H](NC(=O)[C@@H](NC(=O)[C@@H](OC)c1ccccc1)C1CCCCC1)C(C)(C)C)C(C)(C)C21CCC1)C(=O)NS(=O)(=O)N1CCCC1` [Compound 193, (5R,8S)-7-{(2S)-2-[(cyclohexyl{[(2S)-2-methoxy-2-phenylacetyl]amino}acetyl)amino]-3,3-dimethylbutanoyl}-10,10-dimethyl-N-{(1R,2S)-1-[(pyrrolidin-1-ylsulfonyl)carbamoyl]-2-vinylcyclopropyl}-7-azadispiro[3.0.4.1]decane-8-carboxamide], the IC50 is 25 nM.
Turning to `C=C[C@@H]1C[C@]1(NC(=O)[C@@H]1C[C@@]2(CN1C(=O)[C@@H](NC(=O)[C@@H](NC(=O)C1CCN(C(C)=O)CC1)C1CCCCC1)C(C)(C)C)C(C)(C)C21CCC1)C(=O)NS(=O)(=O)N1CCCC1` [Compound 194, (5R,8S)-7-[(2S)-2-{[{[(1-acetylpiperidin-4-yl)carbonyl]amino}(cyclohexyl)acetyl]amino}-3,3-dimethylbutanoyl]-10,10-dimethyl-N-{(1R,2S)-1-[(pyrrolidin-1-ylsulfonyl)carbamoyl]-2-vinylcyclopropyl}-7-azadispiro[3.0.4.1]decane-8-carboxamide], the IC50 was determined as 10 nM.
For `C=C[C@@H]1C[C@]1(NC(=O)[C@@H]1C[C@@]2(CN1C(=O)[C@@H](NC(=O)[C@@H](NC(=O)c1nccc3ccccc13)C1CCCCC1)C(C)(C)C)C(C)(C)C21CCC1)C(=O)NS(=O)(=O)N1CCCC1` [Compound 195, (5R,8S)-7-[(2S)-2-({cyclohexyl[(isoquinolin-1-ylcarbonyl)amino]acetyl}amino)-3,3-dimethylbutanoyl]-10,10-dimethyl-N-{(1R,2S)-1-[(pyrrolidin-1-ylsulfonyl)carbamoyl]-2-vinylcyclopropyl}-7-azadispiro[3.0.4.1]decane-8-carboxamide], the IC50 was 75 nM.
The same measure for `C=C[C@@H]1C[C@]1(NC(=O)[C@@H]1C[C@@]2(CN1C(=O)[C@@H](NC(=O)[C@@H](NC(=O)c1cnc3ccccc3c1)C1CCCCC1)C(C)(C)C)C(C)(C)C21CCC1)C(=O)NS(=O)(=O)N1CCCC1` [Compound 196, (5R,8S)-7-[(2S)-2-({cyclohexyl[(quinolin-3-ylcarbonyl)amino]acetyl}amino)-3,3-dimethylbutanoyl]-10,10-dimethyl-N-{(1R,2S)-1-[(pyrrolidin-1-ylsulfonyl)carbamoyl]-2-vinylcyclopropyl}-7-azadispiro[3.0.4.1]decane-8-carboxamide]: 20 nM; for `C=C[C@@H]1C[C@]1(NC(=O)[C@@H]1C[C@@]2(CN1C(=O)[C@@H](NC(=O)[C@@H](NC(=O)c1ccnc3ccccc13)C1CCCCC1)C(C)(C)C)C(C)(C)C21CCC1)C(=O)NS(=O)(=O)N1CCCC1` [Compound 197, (5R,8S)-7-[(2S)-2-({cyclohexyl[(quinolin-4-ylcarbonyl)amino]acetyl}amino)-3,3-dimethylbutanoyl]-10,10-dimethyl-N-{(1R,2S)-1-[(pyrrolidin-1-ylsulfonyl)carbamoyl]-2-vinylcyclopropyl}-7-azadispiro[3.0.4.1]decane-8-carboxamide]: 40 nM.

The record behind these values is US8613914B2, “Peptidomimetic sulfamide compounds and antiviral uses thereof” (Novartis AG, priority 2009, dated 2013).
